Laboratory results as given in patent publication US8691761B2, “Somatostatin receptor 2 antagonists” (priority 2006, dated 2014).
Where two headings read alike, the source gives them in different places. Bridge positions count the residues as written; N and C are the ends. Square brackets hold non-standard residues; d marks the D form. Peptide text beside a SMILES is read from it. * marks the point of attachment. ξ: configuration not given here. Phe(4-NO2) = N[C@@H](Cc1ccc([N+](=O)[O-])cc1)C(=O)O; dPhe(4-NHCONH2) = NC(=O)Nc1ccc(C[C@@H](N)C(=O)O)cc1; Phe(4-NHCONH2) = NC(=O)Nc1ccc(C[C@H](N)C(=O)O)cc1; Trp(5-F) = N[C@@H](Cc1c[nH]c2ccc(F)cc12)C(=O)O; Phe(4-Cl) = N[C@@H](Cc1ccc(Cl)cc1)C(=O)O; ξDihydroorotoyl = O=C1CC(C(=O)*)NC(=O)N1; Phe(4-NH2) = Nc1ccc(C[C@H](N)C(=O)O)cc1; 2Nal = N[C@@H](Cc1ccc2ccccc2c1)C(=O)O

Legend:
hSSTR2 = target: T1, hSSTR2 (Homo sapiens, UniProt P30874); assay: Receptor autoradiography, displacement of 125I-[Leu8,D-Trp22,Tyr25]-SRIF-28 from membrane pellet sections; format: binding; conditions: Table 3, mean ± SEM when N ≧ 3
T1 construct: expressed in transfected cells; host or cells: CHO-K1 or CCL39 cells
Protocol: (§1) Generally, recombinant cells expressing the receptor are washed and homogenized to prepare a crude protein homogenate in a suitable buffer. In a typical assay, an amount of protein from the cell homogenate is placed into a small volume of an appropriate assay buffer at an appropriate pH. Candidate substances, such as potential SRIF agonists and antagonists, are added to the admixture in convenient concentrations, and the interaction between the candidate substance and the receptor polypeptide is monitored.
(§2) In vitro Bioassay: The effects of the various somatostatin analogs were tested in vitro for their ability to bind to isolated cloned receptors expressed on CHO-K1 cells and CCL39 cells. The molecular cloning of the genes encoding multiple somatostatin receptor subtypes permitted the individual expression of these receptors in mammalian cells and the characterization of their respective pharmacological profiles.
(§3) CHO-K1 cells were grown in Ham's F-12 medium, and CCL39 cells were grown in Dulbecco's modified Eagle's medium/Ham's F-12(1:1) mix, supplemented with 10% fetal bovine serum, 100 U/ml penicillin and 100 μg/ml streptomycin, in humidified air containing 5% CO2 at 37° C. Cells were washed twice with and scraped into ice-cold 0.05 M Tris-HCl (pH 7.4), collected by centrifugation, and homogenized using a rotor/stator/system in the same buffer. After centrifugation at 120 g for 5 min at 4° C., the supernatant was collected and centrifuged again at 48,000 g for 30 min at 4° C. The resulting pellet was resuspended in ice-cold Tris buffer, transferred into a microfuge tube, and centrifuged at 20,000 g for 15 min at 4° C. After withdrawal of the supernatant, the membrane pellet was stored at −80° C.
(§4) Receptor autoradiography was performed on 20 μm thick cryostat sections of the membrane pellets, mounted on microscope slides, and then stored at −20° C. […] Increasing concentrations of the unlabeled peptide were used ranging from 0.1-1000 nM. […] IC50 values were calculated after quantification of the data using a computer-assisted image processing system as known in this art.
(§5) The numbers in parentheses indicate the number of times the particular binding test was carried out.
(§6) Receptor autoradiography. Cell membrane pellets were prepared as previously described, and stored at −80° C. Receptor autoradiography was performed on 20-μm thick cryostat (Microm HM 500, Walldorf, Germany) sections of the membrane pellets, mounted on microscope slides, and then stored at −20° C. […] After a brief dip in distilled water to remove excess salts, the sections were dried quickly and exposed for 1 week to Kodak BioMax MR film. IC50 values were calculated after quantification of the data using a computer-assisted image processing system as described previously. […] (Reubi, J. C. “In vitro identification of vasoactive intestinal peptide receptors in human tumors: Implications for tumor imaging.” J. Nucl. Med. 1995, 36, 1846-1853).
(§7) To investigate their ssts binding properties, the peptides were tested for their ability to bind to cryostat sections from membrane pellets of cells expressing the five human ssts (Table 3).

hSSTR5 = target: T2, hSSTR5 (Homo sapiens, UniProt P35346); assay: as above; format: binding; conditions: Table 3; mean ± SEM when N ≧ 3; read-out: sst5 binding affinity (IC50)
T2 construct: expressed in transfected cells; host or cells: CHO-K1 or CCL39 cells
Protocol: as §1, §2, §3, §4, §5, §6, §7

hSSTR4 = target: T3, hSSTR4 (Homo sapiens, UniProt P31391); assay: as above; format: binding
T3 construct: expressed in transfected cells; host or cells: CHO-K1 or CCL39 cells
Protocol: as §1, §2, §3, §4, §5, §6, §7

hSSTR1 = target: T4, hSSTR1 (Homo sapiens, UniProt P30872); assay: as above; format: binding; conditions: Table 3; mean ± SEM when N ≧ 3; read-out: sst1 binding affinity (IC50)
T4 construct: expressed in transfected cells; host or cells: CHO-K1 or CCL39 cells
Protocol: as §1, §2, §3, §4, §5, §6, §7

hSSTR3 = target: T5, hSSTR3 (Homo sapiens, UniProt P32745); assay: as above; format: binding; conditions: Table 3; mean ± SEM when N ≧ 3; read-out: sst3 binding affinity (IC50)
T5 construct: expressed in transfected cells; host or cells: CHO-K1 or CCL39 cells
Protocol: as §1, §2, §3, §4, §5, §6, §7

human sst2A receptor = target: T6, human sst2A receptor (Homo sapiens, UniProt P30874); assay: Immunofluorescence-based sst2 internalization assay in HEK-sst2 cells; format: cell-based; conditions: n ≧ 2
T6 construct: expressed in transfected cells; host or cells: HEK293 (HEK-sst2)
Protocol: Immunofluorescence-based sst2 Internalization Assay. Immunofluorescence microscopy-based internalization assay for sst2 was performed with HEK-sst2 using the sst2-specific antibody R2-88 as described elsewhere herein. HEK-sst2 cells were treated either with vehicle alone, the sst2 agonist [Tyr^3]-octreotide at a concentration of 100 nM, [Tyr^3]-octreotide at a concentration of 100 nM in the presence of an excess of the SRIF analogues to be tested (100 times the concentration of [Tyr^3]-octreotide), or with the SRIF analogues to be tested alone at a concentration of 10 μM, and then processed for immunofluorescence microscopy as described previously.

[1] = read-out: sst2 binding affinity (IC50)
[2] = Table 3, mean ± SEM when N ≧ 3, read-out: sst4 binding affinity (IC50)

T3 sequence (P31391 whole entry): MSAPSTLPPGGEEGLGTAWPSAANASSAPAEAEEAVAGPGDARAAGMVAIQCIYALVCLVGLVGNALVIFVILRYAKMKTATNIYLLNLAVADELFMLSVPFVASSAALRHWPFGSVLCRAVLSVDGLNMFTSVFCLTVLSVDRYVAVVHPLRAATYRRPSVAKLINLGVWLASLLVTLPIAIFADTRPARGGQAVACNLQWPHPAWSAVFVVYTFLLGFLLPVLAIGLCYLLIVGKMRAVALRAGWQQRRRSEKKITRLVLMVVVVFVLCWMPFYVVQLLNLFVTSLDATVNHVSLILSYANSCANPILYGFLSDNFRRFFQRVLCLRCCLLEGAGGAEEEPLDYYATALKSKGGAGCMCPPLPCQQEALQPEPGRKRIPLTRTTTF
T5 sequence (P32745 whole entry): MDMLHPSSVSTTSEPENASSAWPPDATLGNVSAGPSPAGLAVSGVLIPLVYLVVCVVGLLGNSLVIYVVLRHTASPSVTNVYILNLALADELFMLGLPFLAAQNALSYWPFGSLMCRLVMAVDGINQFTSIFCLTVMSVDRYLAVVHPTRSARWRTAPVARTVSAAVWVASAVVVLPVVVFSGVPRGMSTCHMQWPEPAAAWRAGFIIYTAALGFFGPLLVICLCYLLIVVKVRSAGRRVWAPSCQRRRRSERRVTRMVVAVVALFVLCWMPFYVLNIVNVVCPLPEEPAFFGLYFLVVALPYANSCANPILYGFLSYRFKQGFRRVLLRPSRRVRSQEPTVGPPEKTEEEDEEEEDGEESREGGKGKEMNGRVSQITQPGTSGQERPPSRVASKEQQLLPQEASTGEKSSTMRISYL
T4 sequence (P30872 whole entry): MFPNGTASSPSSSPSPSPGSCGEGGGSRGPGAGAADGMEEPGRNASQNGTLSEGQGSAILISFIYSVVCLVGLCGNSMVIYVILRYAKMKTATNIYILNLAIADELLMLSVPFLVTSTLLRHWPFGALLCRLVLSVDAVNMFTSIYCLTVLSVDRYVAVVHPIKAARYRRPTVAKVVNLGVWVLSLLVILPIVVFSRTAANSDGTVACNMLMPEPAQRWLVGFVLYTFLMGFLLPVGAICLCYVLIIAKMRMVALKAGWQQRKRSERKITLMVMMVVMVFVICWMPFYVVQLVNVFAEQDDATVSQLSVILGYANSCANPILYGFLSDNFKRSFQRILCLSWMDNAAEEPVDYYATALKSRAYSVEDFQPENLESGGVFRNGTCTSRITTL
T1 sequence (P30874 whole entry): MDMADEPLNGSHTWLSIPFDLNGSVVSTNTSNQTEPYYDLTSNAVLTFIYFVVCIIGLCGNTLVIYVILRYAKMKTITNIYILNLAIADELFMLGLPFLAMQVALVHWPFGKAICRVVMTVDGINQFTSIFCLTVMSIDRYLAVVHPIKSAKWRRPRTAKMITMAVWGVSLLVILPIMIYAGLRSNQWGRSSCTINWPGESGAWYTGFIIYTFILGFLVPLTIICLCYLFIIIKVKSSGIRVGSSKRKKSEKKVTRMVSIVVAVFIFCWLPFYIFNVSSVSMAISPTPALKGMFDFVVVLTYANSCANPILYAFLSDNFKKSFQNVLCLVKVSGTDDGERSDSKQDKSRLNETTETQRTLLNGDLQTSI
T2 sequence (P35346 whole entry): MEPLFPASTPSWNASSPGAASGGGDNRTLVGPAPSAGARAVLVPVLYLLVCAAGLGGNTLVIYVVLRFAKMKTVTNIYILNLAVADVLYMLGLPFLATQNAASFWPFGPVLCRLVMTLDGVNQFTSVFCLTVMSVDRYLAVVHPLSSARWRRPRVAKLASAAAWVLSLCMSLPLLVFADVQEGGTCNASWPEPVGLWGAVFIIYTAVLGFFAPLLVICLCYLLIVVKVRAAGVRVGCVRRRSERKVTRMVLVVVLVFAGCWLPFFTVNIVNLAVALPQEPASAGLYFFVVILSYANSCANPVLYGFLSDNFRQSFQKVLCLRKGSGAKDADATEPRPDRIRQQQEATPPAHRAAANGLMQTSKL
T6 sequence (P30874 whole entry): as the sequence (P30874 whole entry) above

SMILES | IC50 (hSSTR2; [1]) [nM] | IC50 (hSSTR5) [nM] | IC50 (hSSTR4; [2]) [nM] | IC50 (hSSTR1) [nM] | IC50 (hSSTR3) [nM] | sst2-internalization tested in vitro in HEK-sst2 cells (function) (human sst2A receptor) | IC50 (hSSTR2; sst2 binding affinity (IC50)) [nM] | IC50 (hSSTR4) [nM]
C[C@@H](O)[C@@H]1NC(=O)[C@H](CCCCN)NC(=O)[C@H](Cc2c[nH]c3ccc(F)cc23)NC(=O)[C@H](Cc2ccc(NC(N)=O)cc2)NC(=O)[C@H](NC(=O)[C@@H](N)Cc2ccc(Cl)cc2)CSSC[C@@H](C(=O)N[C@@H](Cc2ccc3ccccc3c2)C(N)=O)NC1=O [compound 26, H2N-Cpa-c[DCys-Aph(Cbm)-5F-Trp-Lys-Thr-Cys]-2Nal-NH2] (H-[Phe(4-Cl)][dC][Phe(4-NHCONH2)][Trp(5-F)]KTC[2Nal]-NH2; disulfide 2-7) | 23 ± 3.7 | 618 ± 248 | 905 ± 132 | > 1000 | 90 ± 11 | – | – | –
C[C@@H](O)[C@@H]1NC(=O)[C@H](CCCCN)NC(=O)[C@@H](Cc2c[nH]c3ccccc23)NC(=O)[C@H](Cc2ccc(NC(N)=O)cc2)NC(=O)[C@H](NC(=O)[C@H](Cc2ccc(Cl)cc2)NC(=O)CCOCCOCCOCCNC(=O)CN2CCN(CC(=O)O)CCN(CC(=O)O)CCN(CC(=O)O)CC2)CSSC[C@@H](C(=O)N[C@@H](Cc2ccc3ccccc3c2)C(N)=O)NC1=O [compound 16, DOTA-Peg-Cpa-c[DCys-Aph(Cbm)-DTrp-Lys-Thr-Cys]-2Nal-NH2] | – | – | – | – | – | Antagonist | – | –
C[C@@H](O)[C@@H]1NC(=O)[C@H](CCCCN)NC(=O)[C@@H](Cc2c[nH]c3ccccc23)NC(=O)[C@@H](N(C)C(=O)c2ccccc2)NC(=O)[C@H](NC(=O)[C@@H](N)Cc2ccc(Cl)cc2)CSSC[C@@H](C(=O)N[C@@H](Cc2ccc3ccccc3c2)C(N)=O)NC1=O [compound 10, H2N-Cpa-c[DCys-D-Agl(NMe.benzoyl)-DTrp-Lys-Thr-Cys]-2Nal-NH2] | – | 728 ± 272 | – | > 1000 | 102 ± 10 | – | 158 ± 37 | 116 ± 47
C[C@@H](O)[C@@H]1NC(=O)[C@H](CCCCN)NC(=O)[C@@H](Cc2ccc(NC(N)=O)cc2)NC(=O)[C@H](Cc2ccc(NC(=O)C3CC(=O)NC(=O)N3)cc2)NC(=O)[C@H](NC(=O)[C@@H](N)Cc2ccc([N+](=O)[O-])cc2)CSSC[C@@H](C(=O)N[C@@H](Cc2ccc3ccccc3c2)C(N)=O)NC1=O (stereo partly drawn) [compound 6, H2N-pNO2Phe-c[DCys-Aph(Hor)-DAph(Cbm)-Lys-Thr-Cys]-2Nal-NH2] (H-[Phe(4-NO2)][dC][Phe(4-NH2)](ξDihydroorotoyl)[dPhe(4-NHCONH2)]KTC[2Nal]-NH2; disulfide 2-7) | – | > 1000 | > 1000 | > 1000 | – | – | – | –
C[C@@H](O)[C@@H]1NC(=O)[C@H](CCCCN)NC(=O)[C@@H](Cc2c[nH]c3ccccc23)NC(=O)[C@H](Cc2ccc(NC(N)=O)cc2)NC(=O)[C@H](NC(=O)[C@@H](N)Cc2ccc(Cl)cc2)CSSC[C@@H](C(=O)N[C@@H](Cc2ccc(NC(N)=O)cc2)C(N)=O)NC1=O [compound 21, H2N-Cpa-c[DCys-Aph(Cbm)-DTrp-Lys-Thr-Cys]-Aph(Cbm)-NH2] | 15 | 560 ± 144 | 551 ± 151 | > 1000 | 336 ± 46 | – | – | –
CONC(=O)Nc1ccc(C[C@@H]2NC(=O)[C@H](NC(=O)[C@@H](N)Cc3ccc(Cl)cc3)CSSC[C@@H](C(=O)N[C@@H](Cc3ccc4ccccc4c3)C(N)=O)NC(=O)[C@H]([C@@H](C)O)NC(=O)[C@H](CCCCN)NC(=O)[C@@H](Cc3c[nH]c4ccccc34)NC2=O)cc1 [compound 23, H2N-Cpa-c[DCys-Aph(CONH—OCH3)-DTrp-Lys-Thr-Cys]-2Nal-NH2] | 9.3 ± 0.9 | 313 ± 35 | 883 ± 174 | > 1000 | 157 ± 49 | – | – | –
